This is an account of results in PMC12442448, “A third type of PETase from the marine Halopseudomonas lineage” (Protein Science : A Publication of the Protein Society, 2025).

Each structure is given as a SMILES string.

This assay concerns the target T1, HaloPETase1 (Halopseudomonas pachastrellae, UniProt A0A1S8DDV9).
T1 construct: gene BXT89_15940; N-terminal signal peptide removed; N-10xHis-SUMO tag cut with SenP2 (tag kept in agar-plate screen); extra N-terminal Ser and C-terminal Ala from FX cloning; E. coli Shuffle T7
T1 sequence (A0A1S8DDV9 24-289): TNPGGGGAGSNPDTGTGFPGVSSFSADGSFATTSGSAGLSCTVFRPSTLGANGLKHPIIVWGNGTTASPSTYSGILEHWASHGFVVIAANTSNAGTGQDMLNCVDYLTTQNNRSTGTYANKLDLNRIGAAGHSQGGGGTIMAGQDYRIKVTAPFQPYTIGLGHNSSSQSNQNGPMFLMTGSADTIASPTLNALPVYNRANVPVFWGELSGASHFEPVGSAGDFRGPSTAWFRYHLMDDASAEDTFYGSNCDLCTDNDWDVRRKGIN
Kind of assay: absorbance at […] nm, initial rate (residual activity assay). It counts as biochemical. As to conditions: 1 mM substrate, 20 mM NaPi, pH 7.4, 150 mM NaCl, 1% DMSO; tag removed.

For `CCCC(=O)Oc1ccc([N+](=O)[O-])cc1` [para‐nitrophenyl butyrate], the “absorbance at 405 nm, initial rate (residual activity assay)” value was “the residual activity was measured by a para‐nitrophenyl butyrate (pNPB) assay”.
